{
  "source": "patent US10088479B2",
  "about": "“Biomarker and uses thereof” (ISIS INNOVATION LIMITED, priority 2014, dated 2018)",
  "molecules": {"B1": {"name": "citrullinated FBG: recombinant FBG domain citrullinated in vitro with PAD (protein)", "chain": "GLLYPFPKDCSQAMLNGDTTSGLYTIYLNGDKAEALEVFCDMTSDGGGWIVFLRRKNGRENFYQNWKAYAAGFGDRREEFWLGLDNLNKITAQGQYELRVDLRDHGETAFAVYDKFSVGDAKTRYKLKVEGYSGTAGDSMAYHNGRSFSTFDKDTDSAITNCALSYKGAFWYRNCHRVNLMGRYGDNNHSQGVNWFHWKGHEHSIQFAEMKLRPSNFRNLEGRRKRA", "modifications": "non-natural residues; left off: small tags and cut ends", "notes": "recombinant FBG domain citrullinated in vitro with PAD"}},
  "key": {"RA sera": {"system": "RA sera", "experiment": "IgG response to cyclic citrullinated FBG peptides in RA and control sera", "assay_type": "binding, human", "conditions": "RA sera (n=20) vs control sera (n=20)", "text": "(A) Peptides with sequences corresponding to the amino acid sequence of FBG were designed, with the addition of cysteine residues at the amino and carboxy termini and the exchange of arginine for citrulline residues at positions identified by LC-MS/MS. (B) IgG response to citrullinated FBG peptides and arginine containing control peptides in patients with rheumatoid arthritis (RA; n=20) and healthy controls (n=20). The 95th percentile of the control sera was used to determine positivity (dashed line). Mann-Whitney U test was used to calculate p values for differences between groups (n.s.=no significant difference, *=p<0.05 and **=p<0.01, ***=p<0.001, […]).\nWith reference to FIG. 31, the antibody response in 20 RA and 20 control sera to 6 cyclic FBG peptides, encompassing citrulline residues was evaluated."}, "human macrophages": {"system": "human macrophages", "experiment": "FBG or LPS induced cytokine synthesis in human macrophages after pre-incubation with FBG peptides", "assay_type": "cell-based", "conditions": "pre-incubation with 20 μM peptide, 24 h; for FBG mediated cytokine synthesis: then 1 μM whole FBG", "description": "(§1) Macrophages were cultured at 1×10^5 cells/well in RPMI 1640 containing 5% (v/v) FBS and 100 U/ml penicillin/streptomycin in 96-well tissue culture plates for 24 h before stimulation. Cells were incubated for 24 h at 37° C. with no addition, 1.0 μM FBG, 1 ng/ml LPS or 1 or 20 μM FBG peptide. Where stated, cells were pre-incubated with 20 μM FBG peptides for 15 min.\n(§2) Supernatants were examined for the presence of the cytokines TNF-α, IL-6, and IL-8 by enzyme-linked immunosorbent assay (ELISA) according to the manufacturer's instructions (R&D systems). Absorbance was read on a spectrophotometric ELISA plate reader (Labsystems Multiscan Biochromic, Vantaa, Finland) and analyzed using the Ascent software program (Thermo Labsystems, Altrincham, UK)."}, "[1]": {"system": "RA synovial membrane cultures", "experiment": "Blockade of spontaneous cytokine synthesis in RA synovial membrane cultures by FBG peptides", "assay_type": "cell-based, human", "conditions": "24 h; for inhibition of cytokine synthesis at the highest concentrations: RA membrane cultures, peptide 25, 100 or 250 μM, highest concentration; for TNF and IL8 synthesis (spontaneous): RA synovial membrane cultures, 100 μM peptide", "description": "RA membrane cells (representing a mixed population of all synovial cell types) were isolated from synovial membranes obtained from patients undergoing joint replacement surgery (Brennan (1989)). Synovial membrane tissue was digested in RPMI 1640 (GIBCO) containing 5% fetal calf serum (FCS) (GIBCO), 5 mg/ml collagenase type IV (Sigma) and 0 15 mg/ml DNAse type I (Sigma) and incubated at 37° C. for 2 h.\nImmediately after isolation, RA membrane cells were cultured at 1×10^5 cells/well in RPMI 1640 containing 10% (v/v) FBS and 100 U/ml penicillin/streptomycin in 96-well tissue culture plates. Cells were incubated for 24 h at 37° C. with no addition, buffer control (PBS, 1% BSA, 0.01% NaN3), or with 25 μm, 100 μM or 250 μM of each FBG spanning peptide.\nas §2"}, "[2]": {"system": "primary human macrophages", "experiment": "Cytokine synthesis in primary human macrophages stimulated with FBG peptides", "assay_type": "cell-based", "conditions": "1 or 20 μM peptide, 24 h", "description": "After incubation the tissue was pipetted through a nylon mesh into a sterile beaker. The cells were then washed three times in complete medium (RPMI 1640 supplemented with 10% FCS). RA synovial fibroblasts were isolated from the mixed population of RA membrane cells by selection in DMEM (Bio-Whittaker) supplemented with 10% FBS, […], 100 U/ml penicillin, and streptomycin. Human monocytes were isolated from peripheral blood (London Blood Bank) and macrophages were derived from monocytes after differentiation for 4 days with 100 ng/ml of M-CSF.\nas §1, §2"}, "[3]": {"system": "primary human macrophages", "experiment": "TNF synthesis in primary human macrophages stimulated with native or citrullinated FBG", "assay_type": "cell-based", "conditions": "0.1-1.0 μM, 24 h", "description": "Primary human macrophages were isolated as described above and cultured at 1×10^5 cells/well in RPMI 1640 containing 5% (v/v) FBS and 100 U/ml penicillin/streptomycin in 96-well tissue culture plates for 24 h before stimulation. Cells were incubated for 24 h at 37° C. with no addition (UN), different concentrations (uM) of native FBG (nFBG) or cit FBG (cFBG) or citrullination buffer alone (CIT) or cit buffer plus PAD enzyme (CIT+PAD).\nas §2, with “TNF-α” for “TNF-α, IL-6, and IL-8”"}, "[4]": {"system": "human dermal fibroblasts (HDF)", "experiment": "Cell adhesion to coated FBG, crystal violet", "assay_type": "cell-based", "conditions": "coated wells, 45 minutes", "description": "(§3) (A) The sequence identified to bind integrin αvβ3 is shown in white (Yokoyama et al., 2000). Within this sequence two Arginines (shown in black) were identified to be citrullinated. (B) Wells of a 96 well plate were coated with different concentrations of FBG, citrullinated FBG (cFBG), FBG incubated in buffer without Calcium (FBG —Ca^2+), or FBG incubated without PAD (FBG —PAD). As a positive control wells were coated with Fibronectin (FN) (1 ug/ml), and coating with BSA (10 mg/ml) served as negative control. Plates were incubated with human dermal fibroblasts (HDF) or synovial fibroblasts from RA patients (RAF) for 45 minutes and adhesion was measured by determining absorbance of attached cells after staining with crystal violet (0.1%). Data are shown as the mean of at least four independent experiments+s.e.m., *=p<0.05, **=p<0.01."}, "[5]": {"system": "synovial fibroblasts from RA joints (RAF)", "experiment": "Cell adhesion to coated FBG, crystal violet", "assay_type": "cell-based, human", "conditions": "coated wells, 45 minutes", "description": "as §3"}},
  "note": "Where no end group is shown, it is not given here. [ ]: non-standard residue; d: D form. Cit = NC(=O)NCCC[C@H](N)C(=O)O",
  "data": [
    {"molecule": "CEMKL-Cit-PSNF-Cit-NLEGRRKRC (CEMKL[Cit]PSNF[Cit]NLEGRRKRC; also: cyclic, closure not given here) [CIT209/214]", "values": [
      {"measurement": "antibody response", "setting": "RA sera", "value": "strong antibody response"}
    ]},
    {"molecule": "CEMKLRPSNFRNLEG-Cit-Cit-KRC (CEMKLRPSNFRNLEG[Cit][Cit]KRC; also: cyclic, closure not given here) [CIT219/220]", "values": [
      {"measurement": "antibody response", "setting": "RA sera", "value": "strong antibody response"}
    ]},
    {"molecule": "CVFLRRKNG-Cit-ENFYQNWC (CVFLRRKNG[Cit]ENFYQNWC; also: cyclic, closure not given here) [CIT55]", "values": [
      {"measurement": "antibody response", "setting": "RA sera", "value": "strong antibody response"}
    ]},
    {"molecule": "ELRVDLRDHGETAFAVYDKFSVGDAKTRYK [Peptide 5]", "values": [
      {"measurement": "FBG mediated cytokine synthesis", "setting": "human macrophages", "value": "specifically blocked"},
      {"measurement": "effect on TNF synthesis", "setting": "[1]; RA membrane cells", "value": "no effect"},
      {"measurement": "maximal inhibition of IL8 synthesis", "setting": "[1]; RA membrane cells, dose dependent", "value": 81, "unit": "%"},
      {"measurement": "induction of cytokine synthesis", "setting": "[2]", "value": "induced cytokine synthesis in a dose dependent manner"}
    ]},
    {"molecule": "KTRYKLKVEGYSGTAGDSMAYHNGRSFST [Peptide 6]", "values": [
      {"measurement": "induction of cytokine synthesis", "setting": "[2]", "value": "induced cytokine synthesis in a dose dependent manner"}
    ]},
    {"molecule": "TIGLLYPFPKDCSQAMLNGDTTSGLYTIYL [Peptide 1]", "values": [
      {"measurement": "induction of cytokine synthesis", "setting": "[2]", "value": "induced cytokine synthesis in a dose dependent manner"}
    ]},
    {"molecule": "WIVFLRRKNGRENFYQNWKAYAAGFGDRRE [Peptide 3]", "values": [
      {"measurement": "inhibition of cytokine synthesis at the highest concentrations", "setting": "[1]", "value": 95, "unit": "%"},
      {"measurement": "TNF and IL8 synthesis (spontaneous)", "setting": "[1]", "value": "inhibited"}
    ]},
    {"molecule": "WYRNCHRVNLMGRYGDNNHSQGVNWFHWKG [Peptide 8]", "values": [
      {"measurement": "LPS induced cytokine synthesis", "setting": "human macrophages; then 1 ng/ml LPS", "value": "blocked"},
      {"measurement": "FBG mediated cytokine synthesis", "setting": "human macrophages", "value": "blocked"},
      {"measurement": "inhibition of cytokine synthesis at the highest concentrations", "setting": "[1]", "value": 56, "unit": "%"},
      {"measurement": "TNF and IL8 synthesis (spontaneous)", "setting": "[1]", "value": "inhibited"}
    ]},
    {"molecule": "B1", "values": [
      {"measurement": "cytokine (TNFα) synthesis compared with native FBG", "setting": "[3]", "value": "better at stimulating cytokine (e.g. TNFα) synthesis"},
      {"measurement": "adhesion of HDF", "setting": "[4]", "value": "reduces adhesion"},
      {"measurement": "adhesion of RAF", "setting": "[5]", "value": "reduces adhesion"}
    ]}
  ]
}
